Our source for the EC50 and IC50 values is patent publication US20260242391A1 (priority 2023, published 2026).

The test system of one series is HL-60. Description: HL-60 differentiation potency. In kind it is cell-based. The following applies: Homo sapiens.
A short description of another series: in vitro. The following applies: human.

Turning to `C[C@H]1[C@@H](O[C@H]2CC[C@@H](CC(=O)O)C2)O[C@@H]2O[C@@]3(C)CC[C@H]4[C@H](C)CC[C@@H]1[C@@]24OO3` [Compound 130, 2-((1R,3S)-3-(((3R,5aS,6R,8aS, 9R,10S,12R, 12aR)-3,6,9-trimethyldeca-hydro-12H-3,12-epoxy[1,2]dioxepino[4,3-i]isochromen-10-yl)oxy)cyclo-pentyl)acetic acid], in the series on HL-60, it took 241 nM to reach a half-maximal effect (EC50). Besides, the IC50 in the series “in vitro” is greater than 20000 nM.
Consider `C[C@H]1[C@@H](Oc2ccc(CC(=O)NC(C)(C)C)cc2)O[C@@H]2O[C@@]3(C)CC[C@H]4[C@H](C)CC[C@@H]1[C@@]24OO3` [Compound 104, N-(tert-butyl)-2-(4-(((3R,5aS,6R,8aS, 9R,10S,12R, 12aR)-3,6,9-trimethyldeca-hydro-12H-3,12-epoxy[1,2]dioxepino[4,3-i]isochromen-10-yl)oxy)phenyl) acetamide], for which, in the series on HL-60, a half-maximal response (EC50) required 52.3 nM. In “in vitro”, this compound displayed an IC50 of 160 nM.
`C[C@H]1[C@H](CCNS(C)(=O)=O)O[C@@H]2O[C@@]3(C)CC[C@H]4[C@H](C)CC[C@@H]1[C@@]24OO3` [Compound 62, N-(2-((3R,5aS,6R,8aS, 9R,10S,12R, 12aR)-3,6,9-trimethyldeca-hydro-12H-3,12-epoxy[1,2]dioxepino[4,3-i]isochromen-10-yl)ethyl) methane-sulfonamide]: a half-maximal response in the series on HL-60 (EC50) required 16400 nM. Also, in the series “in vitro”, the concentration for half-maximal inhibition (IC50) is greater than 20000 nM.
For `C[C@H]1[C@H](NCCS(=O)(=O)C(F)(F)F)O[C@@H]2O[C@@]3(C)CC[C@H]4[C@H](C)CC[C@@H]1[C@@]24OO3` [Compound 28, (3R,5aS,6R,8aS, 9R,10R,12R, 12aR)-3,6,9-trimethyl-N-(2-((trifluoromethyl)sulfonyl)ethyl) decahydro-12H-3,12-epoxy[1,2] dioxepino[4,3-i] isochromen-10-amine] the same measures were 256 nM and 446 nM.
For `C[C@H]1[C@@H](OCc2ccc(C(=O)NO)cc2)O[C@@H]2O[C@@]3(C)CC[C@H]4[C@H](C)CC[C@@H]1[C@@]24OO3` [Compound 5, N-hydroxy-4-((((3R,5aS,6R,8aS, 9R,10S,12R, 12aR)-3,6,9-trimethyldeca-hydro-12H-3,12-epoxy[1,2]dioxepino[4,3-i]isochromen-10-yl)oxy)methyl) benzamide] the same measures were 52.2 nM and 2880 nM.
For `C[C@H]1[C@@H](Nc2cccc(F)c2)O[C@@H]2O[C@@]3(C)CC[C@H]4[C@H](C)CC[C@@H]1[C@@]24OO3` [Compound 56, (3R,5aS,6R,8aS, 9R,10S,12R, 12aR)-N-(3-fluorophenyl)-3,6,9-trimethyldeca-hydro-12H-3,12-epoxy[1,2] dioxepino[4,3-i] isochromen-10-amine] the same measures were 8190 nM and 11000 nM.
As to `C[C@H]1[C@@H](CCN2CC(C(=O)O)C2)O[C@@H]2O[C@@]3(C)CC[C@H]4[C@H](C)CC[C@@H]1[C@@]24OO3` [Compound 68, 1-(2-((3R,5aS,6R,8aS, 9R,10R,12R, 12aR)-3,6,9-trimethyldeca-hydro-12H-3,12-epoxy[1,2]dioxepino[4,3-i]isochromen-10-yl)ethyl) azetidine-3-carboxylic acid], the EC50 in the series on HL-60 is greater than 20000 nM. For the same compound, the IC50 in “in vitro” is greater than 20000 nM.
`C[C@H]1[C@@H](OCc2ccc(C(=O)O)c(F)c2F)O[C@@H]2O[C@@]3(C)CC[C@H]4[C@H](C)CC[C@@H]1[C@@]24OO3` [Compound 31, 2,3-difluoro-4-((((3R,5aS,6R, 8aS,9R,10S,12R, 12aR)-3,6,9-trimethyldeca-hydro-12H-3,12-epoxy[1,2]dioxepino[4,3-i]isochromen-10-yl)oxy)methyl) benzoic acid]: in the series on HL-60, the response was half-maximal at 324 nM (EC50). The compound further came in with an IC50 in the series “in vitro” greater than 20000 nM.
For `C[C@H]1[C@@H](OCc2ccc(C#N)cc2)O[C@@H]2O[C@@]3(C)CC[C@H]4[C@H](C)CC[C@@H]1[C@@]24OO3` [Compound 19, 4-((((3R,5aS,6R, 8aS,9R,10S,12R, 12aR)-3,6,9-trimethyldeca-hydro-12H-3,12-epoxy[1,2]dioxepino[4,3-i]isochromen-10-yl)oxy)methyl) benzonitrile] the same measures were 104 nM and 138 nM.
As for `Cc1cc(CC(=O)O)ccc1O[C@H]1O[C@@H]2O[C@@]3(C)CC[C@H]4[C@H](C)CC[C@@H]([C@H]1C)[C@@]24OO3` [Compound 8, 2-(3-methyl-4-(((3R,5aS,6R,8aS, 9R,10S,12R, 12aR)-3,6,9-trimethyldeca-hydro-12H-3,12-epoxy[1,2]dioxepino[4,3-i]isochromen-10-yl)oxy)phenyl) acetic acid], it took 57.7 nM to reach a half-maximal effect with HL-60 (EC50). For the same compound, the 50% inhibitory concentration (IC50) in “in vitro” was greater than 20000 nM.
In the case of `C[C@H]1[C@H](OCc2ccc(C#N)cc2)O[C@@H]2O[C@@]3(C)CC[C@H]4[C@H](C)CC[C@@H]1[C@@]24OO3` [Compound 7, 4-((((3R,5aS,6R, 8aS,9R,10R,12R, 12aR)-3,6,9-trimethyldeca-hydro-12H-3,12-epoxy[1,2]dioxepino[4,3-i]isochromen-10-yl)oxy)methyl) benzonitrile], a half-maximal response in the series on HL-60 (EC50) required 54.6 nM. Besides, 192 nM corresponded to half-maximal inhibition in “in vitro” (IC50).
In the series on HL-60, `C[C@@H]1CC[C@H]2[C@@H](C)C(OCc3ccc(C(=O)O)cc3F)O[C@@H]3O[C@@]4(C)CC[C@@H]1[C@]32OO4` (stereo in doubt) [Compound 45, 3-fluoro-4-((((3R,5aS,6R,8aS, 9R,10S,12R, 12aR)-3,6,9-trimethyldeca-hydro-12H-3,12-epoxy[1,2]dioxepino[4,3-i]isochromen-10-yl)oxy)methyl) benzoic acid] had a concentration for a half-maximal effect (EC50) of 662 nM. The IC50 in the series “in vitro” is greater than 20000 nM.
On to `C[C@H]1[C@@H](Oc2ccc(-c3nn[nH]n3)cc2)O[C@@H]2O[C@@]3(C)CC[C@H]4[C@H](C)CC[C@@H]1[C@@]24OO3` [Compound 73, 5-(4-(((3R,5aS,6R, 8aS,9R,10S,12R, 12aR)-3,6,9-trimethyldeca-hydro-12H-3,12-epoxy[1,2]dioxepino[4,3-i]isochromen-10-yl)oxy)phenyl)-2H-tetrazole], for which the midpoint of the response in the series with HL-60, the EC50, lay at 34.6 nM. The IC50 in “in vitro” turned out to be 31.9 nM.
In the case of `C[C@H]1[C@@H](OCc2c(Cl)cc(C(=O)O)cc2Cl)O[C@@H]2O[C@@]3(C)CC[C@H]4[C@H](C)CC[C@@H]1[C@@]24OO3` [Compound 177, 3,5-dichloro-4-((((3R,5aS,6R,8aS, 9R,10S,12R, 12aR)-3,6,9-trimethyldeca-hydro-12H-3,12-epoxy[1,2]dioxepino[4,3-i]isochromen-10-yl)oxy)methyl) benzoic acid], the half-maximal effective concentration (EC50) with HL-60 stood at 44.5 nM. In “in vitro”, this compound had an IC50 of 660 nM.
In the case of `C[C@H]1[C@@H](OCC(=O)N[C@H]2CC[C@@H](C(=O)O)C2)O[C@@H]2O[C@@]3(C)CC[C@H]4[C@H](C)CC[C@@H]1[C@@]24OO3` [Compound 152, (1R,3S)-3-(2-(((3R,5aS,6R, 8aS,9R,10S,12R, 12aR)-3,6,9-trimethyldeca-hydro-12H-3,12-epoxy[1,2]dioxepino[4,3-i]isochromen-10-yl)oxy)acetamido) cyclopentane-1-carboxylic acid], in the series with HL-60, the midpoint of the response, the EC50, lay at 8480 nM. In “in vitro”, this compound showed an IC50 greater than 20000 nM.
Regarding `C[C@H]1[C@H](OCc2c(F)cc(C(=O)O)cc2F)O[C@@H]2O[C@@]3(C)CC[C@H]4[C@H](C)CC[C@@H]1[C@@]24OO3` [Compound 137, 3,5-difluoro-4-((((3R,5aS,6R,8aS, 9R,10R,12R, 12aR)-3,6,9-trimethyldeca-hydro-12H-3,12-epoxy[1,2]dioxepino[4,3-i]isochromen-10-yl)oxy)methyl) benzoic acid], in the series with HL-60, the concentration for a half-maximal effect (EC50) is 86.8 nM. This compound displayed an IC50 in “in vitro” greater than 20000 nM.
